Each structure is given as a SMILES string. pIC50: −log10 of the molar value.

What is called pIC50 is −log10 of the IC50, conventionally taken in molar units.

Holding throughout (format): functional, cell-based
Holding throughout (settings): Homo sapiens

For experiment [1], the system named is HUVEC. As to the kind of experiment: Antiangiogenic activity against HUVEC assessed as inhibition of capillary-like structure formation by NCI antiangiogenesis assay.
Experiment [2] has as its system HUVEC. As to the kind of experiment: Antiangiogenic activity against HUVEC assessed as growth inhibition by NCI antiangiogenesis assay.
Experiment [3] deals with HUVEC. The experiment can be described thus: Antiangiogenic activity against HUVEC assessed as inhibition of VEGF-induced cell migration by NCI antiangiogenesis assay.

Regarding `CO[C@@H]1[C@H](OC(=O)NC(=O)CCl)CC[C@]2(CO2)[C@H]1[C@@]1(C)O[C@@H]1CC=C(C)C` [O-CHLOROACETYLCARBAMOYLFUMAGILLOL], the pIC50 with HUVEC [1] was 6.00; in the experiment on HUVEC [2] it was 5.50; with HUVEC [3], 6.30.
With `CC(=O)O[C@H]1C(=O)[C@@]2(C)[C@H]([C@H](OC(=O)c3ccccc3)[C@]3(O)C[C@H](OC(=O)[C@H](O)[C@@H](NC(=O)c4ccccc4)c4ccccc4)C(C)=C1C3(C)C)[C@]1(OC(C)=O)CO[C@@H]1C[C@@H]2O` [PACLITAXEL], the negative-log IC50 (pIC50) in the experiment with HUVEC [1] is 7.30; in the experiment on HUVEC [2], 5.78; in the experiment on HUVEC [3], 7.00.
